Reference: patent US10934310B2, “Inhibitors of Bruton's tyrosine kinase and method of their use” (JANSSEN PHARMACEUTICA NV, priority 2015, dated 2021)

Target: unphosphorylated-BTK kinase domain (UP-BTK), GST-tagged human BTK (389-659aa) (Homo sapiens (Human), UniProt Q06187)
Test: BTK Kinase Lanthascreen Binding Assay
Conditions: Lanthascreen binding, 60 minutes incubation; pIC50 = negative log of the IC50 in molar
Experimental: BTK Kinase Lanthascreen Binding Assay:
A BTK kinase lanthascreen binding assay monitors compound binding to unphosphorylated-BTK kinase domain (UP-BTK), by competing with a fluorescent labeled tracer. […] Data were analyzed using Xlfit™ version 5.3 from ID Business Solutions (Guildford), Microsoft Excel add-in. pIC50 refers to the negative log of the IC50 in molar.

Chain of unphosphorylated-BTK kinase domain (UP-BTK), GST-tagged human BTK (389-659aa) (Q06187 389-659): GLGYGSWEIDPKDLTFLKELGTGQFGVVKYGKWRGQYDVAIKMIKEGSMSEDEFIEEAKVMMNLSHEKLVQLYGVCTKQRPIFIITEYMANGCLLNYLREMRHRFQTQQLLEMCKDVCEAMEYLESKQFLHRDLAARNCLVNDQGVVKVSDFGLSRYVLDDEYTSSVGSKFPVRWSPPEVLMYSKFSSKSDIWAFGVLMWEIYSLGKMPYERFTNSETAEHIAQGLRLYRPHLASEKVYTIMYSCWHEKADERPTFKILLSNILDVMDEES

`C=CC(=O)N[C@@H]1CCCC[C@@H]1NC(=O)c1sc2nccc3c2c1NC(=O)N3c1ccc(Oc2ccccc2)cc1C` (single isomer, unassigned) [Example 451] and `Cc1cc(Oc2ccccc2)ccc1N1C(=O)Nc2c(C(=O)N[C@H]3CCC[C@H]3N)sc3nccc1c23` (single isomer, unassigned) [Example 452, N-((1S,2R)-2-Aminocyclopentyl)-5-(*S)-(2-methyl-4-phenoxyphenyl)-4-oxo-4,5-dihydro-3H-1-thia-3,5,8-triazaacenaphthylene-2-carboxamide] are within 0.2 log units of each other in “BTK_I_binding pIC50” value: 6.40 for the first, 6.38 for the second.

With `Cc1cc(CC(C)C)ncc1N1C(=O)Nc2c(C(=O)N[C@@H]3CCC[C@@H]3NC(=O)/C(C#N)=C/C3CC3)sc3nccc1c23` (single isomer, unassigned) [Example 466, N-((1R,2S)-2-((E)-2-Cyano-3-cyclopropylacrylamido)cyclopentyl)-5-(*S)-(6-isobutyl-4-methylpyridin-3-yl)-4-oxo-4,5-dihydro-3H-1-thia-3,5,8-triazaacenaphthylene-2-carboxamide] the “BTK_I_binding pIC50” value was 7.63.

Same assay, conditions: compound, 50 nM Tracer 236, 2 nM anti-GST antibody, 60 minutes; pIC50 = negative log of the IC50 in molar

`C=CC(=O)NC1CCC[C@@H](NC(=O)c2sc3nccc4c3c2NC(=O)N4c2ccc(Oc3ccccc3)cc2C)C1` (stereo in doubt) [Example 2, N-((1R,3S)-3-Acrylamidocyclohexyl)-5-(2-methyl-4-phenoxyphenyl)-4-oxo-4,5-dihydro-3H-1-thia-3,5,8-triazaacenaphthylene-2-carboxamide] and `C=CC(=O)N[C@H]1CC[C@@H](NC(=O)c2sc3nccc4c3c2NC(=O)N4c2ccc(Oc3ccccc3)cc2C)CC1` [Example 3, N-((1S,4S)-4-Acrylamidocyclohexyl)-5-(2-methyl-4-phenoxyphenyl)-4-oxo-4,5-dihydro-3H-1-thia-3,5,8-triazaacenaphthylene-2-carboxamide] are within 0.2 log units of each other in “BTK_I_binding pIC50” value: 7.36 for the first, 7.42 for the second.

Compared with `C=CC(=O)NC1CCC[C@H]1NC(=O)c1sc2nccc3c2c1NC(=O)N3c1ccnc(-c2ccccc2)c1` (stereo in doubt) [Example 197, N-((1R,2R)-2-Acrylamidocyclopentyl)-4-oxo-5-(2-phenylpyridin-4-yl)-4,5-dihydro-3H-1-thia-3,5,8-triazaacenaphthylene-2-carboxamide], `CC(=O)N[C@@H]1CCC[C@H]1NC(=O)c1sc2nccc3c2c1NC(=O)N3c1ccc(Oc2ccccc2)cc1C` [Example 11, N-((1R,2R)-2-Acetamidocyclopentyl)-5-(2-methyl-4-phenoxyphenyl)-4-oxo-4,5-dihydro-3H-1-thia-3,5,8-triazaacenaphthylene-2-carboxamide] is lower in “BTK_I_binding pIC50” value: 7.48 for the first, 7.24 for the second.

`Cc1cc(Oc2ccccc2)ccc1N1C(=O)Nc2c(C(=O)N[C@@H]3CCC[C@@H]3O)sc3nccc1c23` [Example 6, N-((1R,2S)-2-Hydroxycyclopentyl)-5-(2-methyl-4-phenoxyphenyl)-4-oxo-4,5-dihydro-3H-1-thia-3,5,8-triazaacenaphthylene-2-carboxamide] and `Cc1cc(Oc2ccccc2)ccc1N1C(=O)Nc2c(C(=O)N[C@@H]3CCC[C@H]3O)sc3nccc1c23` [Example 9, N-((1R,2R)-2-Hydroxycyclopentyl)-5-(2-methyl-4-phenoxyphenyl)-4-oxo-4,5-dihydro-3H-1-thia-3,5,8-triazaacenaphthylene-2-carboxamide] are within 0.2 log units of each other in “BTK_I_binding pIC50” value: 7.48 for the first, 7.41 for the second.

Compared with `Cc1cc(Oc2ccccc2)ccc1N1C(=O)Nc2c(C(=O)N[C@@H]3CCCC[C@@H]3N)sc3nccc1c23` [Example 10, N-((1R,2S)-2-Aminocyclohexyl)-5-(2-methyl-4-phenoxyphenyl)-4-oxo-4,5-dihydro-3H-1-thia-3,5,8-triazaacenaphthylene-2-carboxamide], `Cc1cc(Oc2ccccc2)ccc1N1C(=O)Nc2c(C(=O)N[C@@H]3CCC[C@@H]3N)sc3nccc1c23` [Example 12, N-((1R,2S)-2-Aminocyclopentyl)-5-(2-methyl-4-phenoxyphenyl)-4-oxo-4,5-dihydro-3H-1-thia-3,5,8-triazaacenaphthylene-2-carboxamide] is lower in “BTK_I_binding pIC50” value: 7.35 for the first, 7.03 for the second.

`C=CC(=O)N[C@H]1CC[C@H](NC(=O)c2sc3nccc4c3c2NC(=O)N4c2ccc(Oc3ccccc3)cc2C)CC1` [Example 13, N-((1R,4R)-4-Acrylamidocyclohexyl)-5-(2-methyl-4-phenoxyphenyl)-4-oxo-4,5-dihydro-3H-1-thia-3,5,8-triazaacenaphthylene-2-carboxamide] and `Cc1cc(Oc2ccccc2)ccc1N1C(=O)Nc2c(C(=O)N[C@H]3CC[C@@H](NC#N)CC3)sc3nccc1c23` [Example 23, N-((1S,4S)-4-Cyanamidocyclohexyl)-5-(2-methyl-4-phenoxyphenyl)-4-oxo-4,5-dihydro-3H-1-thia-3,5,8-triazaacenaphthylene-2-carboxamide] are within 0.2 log units of each other in “BTK_I_binding pIC50” value: 6.94 for the first, 6.77 for the second.

`Cc1cc(Oc2ccccc2)ccc1N1C(=O)Nc2c(C(=O)N[C@H]3CC[C@H](O)CC3)sc3nccc1c23` [Example 15, N-((1R,4R)-4-Hydroxycyclohexyl)-5-(2-methyl-4-phenoxyphenyl)-4-oxo-4,5-dihydro-3H-1-thia-3,5,8-triazaacenaphthylene-2-carboxamide] and `Cc1cc(Oc2ccccc2)ccc1N1C(=O)Nc2c(C(=O)N[C@H]3CC[C@@H](O)CC3)sc3nccc1c23` [Example 16, N-((1S,4S)-4-Hydroxycyclohexyl)-5-(2-methyl-4-phenoxyphenyl)-4-oxo-4,5-dihydro-3H-1-thia-3,5,8-triazaacenaphthylene-2-carboxamide] are within 0.2 log units of each other in “BTK_I_binding pIC50” value: 7.21 for the first, 7.14 for the second.

Compared with `CO[C@H]1CC[C@H](NC(=O)c2sc3nccc4c3c2NC(=O)N4c2ccc(Oc3ccccc3)cc2C)CC1` [Example 18, N-((1R,4R)-4-Methoxycyclohexyl)-5-(2-methyl-4-phenoxyphenyl)-4-oxo-4,5-dihydro-3H-1-thia-3,5,8-triazaacenaphthylene-2-carboxamide], `Cc1cc(Oc2ccccc2)ccc1N1C(=O)Nc2c(C(=O)N[C@H]3CC[C@@H](N)CC3)sc3nccc1c23` [Example 25, N-((1S,4S)-4-Aminocyclohexyl)-5-(2-methyl-4-phenoxyphenyl)-4-oxo-4,5-dihydro-3H-1-thia-3,5,8-triazaacenaphthylene-2-carboxamide] is lower in “BTK_I_binding pIC50” value: 6.99 for the first, 6.66 for the second.

`Cc1cc(Oc2ccccc2)ccc1N1C(=O)Nc2c(C(=O)N[C@H]3CC[C@@H](NC(=O)/C(C#N)=C/C4CC4)CC3)sc3nccc1c23` [Example 19, N-((1S,4S)-4-((E)-2-Cyano-3-cyclopropylacrylamido)cyclohexyl)-5-(2-methyl-4-phenoxyphenyl)-4-oxo-4,5-dihydro-3H-1-thia-3,5,8-triazaacenaphthylene-2-carboxamide] and `Cc1cc(Oc2ccccc2)ccc1N1C(=O)Nc2c(C(=O)NC3CCCC3)sc3nccc1c23` [Example 28, N-Cyclopentyl-5-(2-methyl-4-phenoxyphenyl)-4-oxo-4,5-dihydro-3H-1-thia-3,5,8-triazaacenaphthylene-2-carboxamide] are within 0.2 log units of each other in “BTK_I_binding pIC50” value: 6.63 for the first, 6.67 for the second.

`Cc1cc(Oc2ccccc2)ccc1N1C(=O)Nc2c(C(=O)N[C@H]3CCC[C@@H]3O)sc3nccc1c23` [Example 20, N-((1S,2S)-2-Hydroxycyclopentyl)-5-(2-methyl-4-phenoxyphenyl)-4-oxo-4,5-dihydro-3H-1-thia-3,5,8-triazaacenaphthylene-2-carboxamide] and `Cc1cc(Oc2ccccc2)ccc1N1C(=O)Nc2c(C(=O)N[C@@H]3CCC[C@H]3N)sc3nccc1c23` [Example 22, N-((1R,2R)-2-Aminocyclopentyl)-5-(2-methyl-4-phenoxyphenyl)-4-oxo-4,5-dihydro-3H-1-thia-3,5,8-triazaacenaphthylene-2-carboxamide] are within 0.2 log units of each other in “BTK_I_binding pIC50” value: 7.02 for the first, 7.13 for the second.

`CN[C@@H]1CCC[C@H]1NC(=O)c1sc2nccc3c2c1NC(=O)N3c1ccc(Oc2ccccc2)cc1C` [Example 21, 5-(2-Methyl-4-phenoxyphenyl)-N-((1R,2R)-2-(methylamino)cyclopentyl)-4-oxo-4,5-dihydro-3H-1-thia-3,5,8-triazaacenaphthylene-2-carboxamide] and `CCC(=O)N[C@@H]1CCC[C@H]1NC(=O)c1sc2nccc3c2c1NC(=O)N3c1ccc(Oc2ccccc2)cc1C` [Example 26, 5-(2-Methyl-4-phenoxyphenyl)-4-oxo-N-((1R,2R)-2-propionamidocyclopentyl)-4,5-dihydro-3H-1-thia-3,5,8-triazaacenaphthylene-2-carboxamide] are within 0.2 log units of each other in “BTK_I_binding pIC50” value: 6.85 for the first, 6.69 for the second.

Going from `Cc1cc(Oc2ccccc2)ccc1N1C(=O)Nc2c(C(=O)N[C@@H]3CCC[C@H](N(C)C)C3)sc3nccc1c23` [Example 24, N-((1R,3S)-3-(Dimethylamino)cyclohexyl)-5-(2-methyl-4-phenoxyphenyl)-4-oxo-4,5-dihydro-3H-1-thia-3,5,8-triazaacenaphthylene-2-carboxamide] to `Cc1cc(Oc2ccccc2)ccc1N1C(=O)Nc2c(C(=O)N[C@@H]3CCC[C@H]3N(C)C)sc3nccc1c23` [Example 29, N-((1R,2R)-2-(Dimethylamino)cyclopentyl)-5-(2-methyl-4-phenoxyphenyl)-4-oxo-4,5-dihydro-3H-1-thia-3,5,8-triazaacenaphthylene-2-carboxamide], the “BTK_I_binding pIC50” value rises from 6.59 to 6.81.

Same assay, conditions: read-out: BTK_I_binding pIC50 (converted)

First: Cc1cc(CC(C)C)ncc1N1C(=O)Nc2c(C(=O)N[C@@H]3CCC[C@@H]3NC(=O)/C=C/CNC(=O)CCCC(=O)NCCCOCCOCCOCCCNC(=O)CCCC[C@@H]3SC[C@@H]4NC(=O)N[C@@H]43)sc3nccc1c23 (single isomer, unassigned) [Example 464]
Second: Cc1cc(Oc2ccccc2)ccc1N1C(=O)Nc2c(C(=O)N[C@@H]3CCC[C@@H]3N(C)C)sc3nccc1c23 [Example 17, N-((1R,2S)-2-(Dimethylamino)cyclopentyl)-5-(2-methyl-4-phenoxyphenyl)-4-oxo-4,5-dihydro-3H-1-thia-3,5,8-triazaacenaphthylene-2-carboxamide]
The IC50 of the first is 1.9-fold higher: 229 nM for the first, 120 nM for the second.
